Results reported in publication PMC12640667 (Chemmedchem, 2025).
“And” between values parts separate entries of the source, which are not always exact repeats. Equal values may be shown once. Read-outs that look alike come from different tables or passages of the source.

Key:
[1] = cited from earlier work
[2] = target: T1, Hb (Homo sapiens, UniProt P69905); assay: Time-dependent Hb oxygen equilibrium; assay type: biochemical; settings: at 3 h; 2 mM; normal whole blood, hematocrit 20%, 37 °C
[3] = target: T1, Hb; assay: Oxygen equilibrium curve; assay type: biochemical; settings: 2 mM; SS blood lysates; relative to untreated controls
[4] = tested on: human cytochrome P450 (CYP) enzymes; assay: CYP inhibition panel of seven CYP enzymes, pooled human liver microsomes; assay type: in vitro ADME; settings: CYP1A2, CYP2C8, CYP2C9, CYP2C19, CYP2D6, CYP3A4, CYP2B6; 0.1–100 µM
[5] = target: T1, Hb; assay: Hb modification; assay type: binding; settings: 2 mM; SS blood lysates; percentage fraction of total Hb area
[6] = cited from earlier work; remark: listed apart in the source

SMILES | half‐life [1] [h] | P50 shift [2] [%] | % P50 shift [3] | inhibition of liver CYP isozymes [4] | % Hb modification [5] [%] | aq. solubility ([6]; at 25 °C, ref PubChem CID 237,332) | aq. solubility ([6]; in water at 25 °C) [µg/mL]
O=Cc1ccc(CO)o1 [5‐HMF, 5‐hydroxymethylfurfural] | < 2.2 | 35 | 27% and 27.2 ± 4.9% | no inhibition | 33.8 ± 11.7 | ≈ 400 mg mL^−1 | –
CC(C)n1nccc1-c1ncccc1COc1cccc(O)c1C=O [Voxelotor] | > 50 | – | – | – | – | – | < 100
